# Measurements published in patent publication US20160193162A1 (TIANJIN TAIPU PHARMACEUTICAL SCIENCE & TECHNOLOGY …, priority 2013, published 2016).
# Where two headings read alike, the source gives them in different places.
# Assays:
# [1] = test system: brain nerve cells of an adult rat; details: cited from earlier work
# [2] = I-form crystal purity by DSC of raw material after pulverization, grinding, tabletting; type: physicochemical
# From the text: Change of the crystalline I-form raw material in pulverization, grinding, and tabletting (at a pressure of 10 kg) was detected by DSC (see FIGS. 1-4).
# [3] = powder diffraction of sample tablets after acceleration; type: physicochemical; details: sample tablets accelerated for two months
# From the text: Chinese patent CN1101704763A recites a preparation method of the I-form crystals. […] Changes in crystal forms, on the one hand may result in infringement, and on the other hand may further lead to inconsistency in bioavailability of drugs. Therefore, it is very important to solve the problem of stability of crystal forms during the processes of the tablet manufacture and preservation.
# [4] = solubility of crystalline I-form agomelatine in solvents; type: physicochemical
# [5] = stability in the process: crystal form purity (DSC) and relevant substances (HPLC); type: physicochemical; details: stage of the manufacturing process
# From the text: Referring to the aforementioned test 6, tablets were manufactured according to formulation and process with hydroxyproplyl methyl cellulose and polyvinylpyrrolindone k30 in a concentration of 15% as a protective agent.
# 1) Stability in the process: crystal form purity of the tablets was detected using DSC method with crystal forms and relevant substances as evaluation indexes. Regarding detection of relevant substances, HPLC method was adopted using imported drug as a standard.
# [6] = test on influencing factors (high temperature, high humidity); type: physicochemical
# Experimental: 2) Test on influencing factors: we investigated in combination with formulations of the present invention: the samples were allowed to stand in an open state for 30 days under the conditions of a high temperature of 60° C., a high humidity of RH 92%, and both high temperature and high humidity (40° C., RH75%), respectively.
I-form crystal purity (%) detected by DSC ([2]; after grinding),I-form crystal purity (%) detected by DSC ([2]; after pulverization),I-form crystal purity (%) detected by DSC ([2]; after tabletting at a pressure of 10 kg),"I-form crystal purity (%) detected by DSC ([2]; raw material, untreated)",solubility ([4]; in DMSO),solubility ([4]; in acetonitrile),solubility ([4]; in ethanol),solubility ([4]; in methanol),solubility ([4]; in water),Crystal form purity ([5]; DSC),Relevant substances ([5]; HPLC),Crystal form purity % ([6]; 0 day),"Crystal form purity % ([6]; 10 days at a high humidity (RH 92%), open state)","Crystal form purity % ([6]; 10 days at a high temperature (60° C.), open state)","Crystal form purity % ([6]; 10 days at both high temperature and high humidity (40° C., RH75%), open state)",SMILES,cell proliferation and neuronal regeneration in hippocampal ventral dentate gyrus ([1]; acute or subacute administration (4 hours or nine weeks)),cell proliferation and neuronal regeneration in hippocampal ventral dentate gyrus ([1]; long-term (three weeks) administration),crystal form by powder diffraction [3]
–,–,–,–,–,–,–,–,–,–,–,–,–,–,–,"COc1ccc2cccc(CCNC(C)=O)c2c1 [Agomelatine, agomelatine]",no similar situation occurred,increase cell proliferation and neuronal regeneration,–
97.5%,90.0%,74.3%,100%,very soluble,very soluble,very soluble,very soluble,almost insoluble,100,0.32%,100%,80%,65%,35%,COc1ccc2cccc(CCNC(C)=O)c2c1 [agomelatine],–,–,almost completely converted to the II form
